The values below come from US20210205413A1 (Nektar Therapeutics, priority 2018, published 2021).

The test system of assay [1] is Balb/c mice (KLH DTH model). The assay is described as follows: Mouse KLH delayed-type hypersensitivity (DTH) efficacy model, ear swelling. The format is in vivo. As to the method:
Mice are sensitized subcutaneously in their dorsal area with a 100 μl subcutaneous injection containing 100 μg keyhole limpit hemocyanin (KLH) in an emulsion containing Complete Freund's Adjuvant (CFA) and Incomplete Freund's Adjuvant, at a ratio of 1:1:1 respectively. Five days later, baseline ear thickness is measured prior to challenge with 10 μg of KLH intradermally in the left ear, with the right ear remaining untreated. Ear thickness measurements are measured with calipers at 24, 48, 72 and 96 hours post KLH challenge in all groups. […] A positive control consisting of cyclosporin (10 mg/kg, single dose) was administered on day 0.

The test system of a further assay is Tregs. The assay is described as follows: Single-dose study in cynomologous monkey: Tregs in blood by flow cytometry. The assay is classed as in vivo. As to the method: A series of blood samples are taken from each animal before treatment (day −6 and −1) and at multiple intervals following treatment for assessment by flow cytometry of Treg cell numbers and activation state.
For immunophenotyping analysis, blood samples (approximately 1.0 mL) are collected from each monkey at the following time points: Pre-treatment (Day −6 and −1), Day 2, Day 3, Day 4, Day 5, Day 6, Day 7, Day 10, Day 14, and Day 21 post treatment. Venipuncture samples are collected into tubes containing the anticoagulant, K2EDTA. Tubes are placed on wet ice pending transfer. The whole blood samples are analyzed by flow cytometry using the following panels, and the samples are analyzed for the following: • T cell panel: CD45/CD3/CD4/CD8/ICOS • TB/NK panel: CD45/CD3/CD16/CD20 • pSTAT5 panel: CD3/CD4/CD8/CD25/CD127/pSTAT5 • Treg panel 1: CD3/CD4/CD8/CD25/FoxP3/Ki67 • Treg panel 2: CD3/CD4/CD8/CD25/FoxP3/Helios Computerized systems can be used for the conduct of the study, for example flow cytometry data acquisition can use BD FACSCanto II/FACSDiva LEGENDPlex Data Analysis Software, and flow cytometry data analysis can use De Novo FCS Express software.
Values from male and female are averaged, and the magnitude of change is shown relative to d-1 values, marked by the dotted line.

[2] abbreviates: SC q3d, AUC0-96h of change in ear thickness.

Where only a bound is given, the exact number is not on record here.

For the substance “(1,3-bis(methoxypoly(ethylene glycol)10kDcarbamoyl)-2-propanoxy)-4-butanamide)interleukin-2) [RUR20kD-IL-2]”, in assay [1] (SC 0.003-0.3 mg/kg every three days), the “ear swelling relative to vehicle control” value is on record as “significant dose-dependent decreases in ear swelling”. Also, in assay [1] (setting [2]), the “dose achieving maximal effect” value was 0.3 mg/kg and the minimally effective dose stood at 0.01 mg/kg. In the assay on Tregs (single SC 25 μg/kg), the “day FoxP3 MFI nearly returns to pre-dose levels” value was in the range of 14 to 21 days, the “day by which CD25 MFI returns to near pre-dose levels” value was at most 21 days, the “day of maximum CD25 MFI” value came out at 6 days and the “days by which Treg numbers return to near d-1 levels” value is 14 to 21 days. Besides, in the assay on Tregs (single SC 25 μg/kg), the “time of maximum FoxP3 MFI” value is 6 days and the “time of maximum Treg cell numbers” value was “seven days following administration”. The “duration of sustained Treg mobilization and activity” value with Tregs (single administration) is “over 14 days”.
